Drawing on ChEMBL document CHEMBL6087390, “Pyridine and Pyrimidine hybrids as privileged scaffolds in antimalarial drug discovery: A recent development” (Bioorg Med Chem Lett, 2024), this text covers EC50, IC50 and CC50 for 31 molecules.

For data set [1], the system named is Plasmodium falciparum. Nature of the data set: Antimalarial activity against Plasmodium falciparum 3D7 assessed as inhibition of parasite growth measured after 72 hrs by SYBR Green I staining based analysis. The format is functional, organism-based. The following applies: 3D7, 72 h.
In data set [2] the test system is Plasmodium falciparum. Nature of the data set: Antiplasmodial activity against Plasmodium falciparum Dd2 assessed as reduction in parasite growth measured after 72 hrs by SYBR Green 1 staining based assay. The format is functional, organism-based. The following applies: Dd2, 72 h.
In data set [3] the test system is Plasmodium falciparum. Kind of data set: microbe, parasite or virus in culture. The following applies: 3D7, 72 h.
Data set [4] concerns Plasmodium falciparum. Kind of data set: microbe, parasite or virus in culture. Conditions: W2.
Description: Antimalarial activity against Plasmodium falciparum W2 assessed as reduction in parasite growth
Data set [5] deals with Plasmodium falciparum. Nature of the data set: Antimalarial activity against Plasmodium falciparum D6 assessed as reduction in parasite growth. It is filed as functional, organism-based.
In data set [6] the test system is HepG2. Kind of data set: Cytotoxicity against human HepG2 cells assessed as reduction in cell viability measured for 48 hrs by SRB assay. It is filed as functional. Background: The SRB assay estimates cell density from bound dye.
The subject of data set [7] is Plasmodium falciparum. Nature of the data set: Antimalarial activity against Plasmodium falciparum 3D7 assessed as inhibition of parasite growth incubated for 72 hrs by SYBR Green I staining based analysis. The following applies: 3D7, 72 h. It is filed as functional, organism-based.
The nature of data set [8]: Cytotoxicity against African green monkey Vero cells assessed as reduction in cell growth measured after 72 hrs by MTT assay. Conditions: African green monkey (Chlorocebus sabaeus). The format is toxicity, cell-based. A general note: Formazan colour is commonly taken as a measure of viable cells.
The subject of data set [9] is Plasmodium falciparum. Nature of the data set: Antiplasmodial activity against Plasmodium falciparum W2 assessed as reduction in parasite growth after 72 hrs by SYBR Green fluorescence assay. It is filed as functional, organism-based. The following applies: W2, 72 h.
Data set [10] has as its system HepG2. Kind of data set: Cytotoxicity against human HepG2 cells assessed as reduction in cell growth. The format is functional.
Data set [11] relates to Plasmodium falciparum. Kind of data set: Antiplasmodial activity against Plasmodium falciparum K1. It is filed as functional, organism-based.
A short description of data set [12]: Cytotoxicity against african green monkey Vero cells assessed as cell viability measured after 48 hrs by MTT assay. It is filed as toxicity, cell-based, Chlorocebus sabaeus. Conditions: chlorocebus sabaeus, time 48 hrs.
The subject of data set [13] is HepG2. Kind of data set: Cytotoxicity against human HepG2 cells assessed as reduction in cell viability incubated for 72 hrs by MTT assay. It is filed as functional.
Data set [14] has as its system Plasmodium falciparum. Nature of the data set: Antimalarial activity against CQ-resistant Plasmodium falciparum Dd2. It is filed as functional, organism-based.
In data set [15] the test system is Plasmodium falciparum. Kind of data set: Antimalarial activity against Plasmodium falciparum K1 assessed as parasite growth inhibition. The format is functional, organism-based.
The subject of data set [16] is Plasmodium falciparum. Kind of data set: Antimalarial activity against […] Plasmodium falciparum NF54 assessed as inhibition of parasite growth incubated for 48 hrs by SYBR green dye based flow cytometry. The format is functional, organism-based. Conditions: NF54, 48 h.
The test system of data set [17] is Plasmodium falciparum. Kind of data set: Antiplasmodial activity against Plasmodium falciparum NF54 assessed as reduction in parasite growth. It is filed as functional, organism-based.
The nature of data set [18]: Cytotoxicity against human MRC5 cells assessed as inhibition of cell growth incubated for 72 hrs by MTT assay. The format is toxicity, cell-based.

Where only a bound is given, the exact number is not on record here.

By EC50 is commonly meant the concentration that produces a half-maximal response. By IC50 is commonly meant the concentration at which inhibition is half-maximal. As usually defined, the CC50 is the concentration at which the toxic effect on the cells reaches its halfway point.

`COc1ccc(C(F)(F)F)cc1CN(C)C(c1cccnc1)c1nnnn1-c1ccccc1C` (centres undefined): the EC50 in data set [1] was found to be 1.2 µM; in [2] it was 1.7 µM. Turning to `FC(F)(F)c1cccc(CN(C2CC2)C(c2cccnc2)c2nnnn2C2CC2)c1` (centres undefined), the EC50 in [2] came to 3 µM. `Cc1cc(Nc2ccc(S(=O)(=O)Nc3ccc(F)cc3)cc2)n2nc(C(F)(F)F)nc2n1` gave an IC50 in data set [3] of 0.08 µM. Regarding `Cc1cc(N2CCN(C)CC2)nc(N(CCCNc2ccnc3cc(Cl)ccc23)Cc2cccs2)n1`, the 50% inhibitory concentration (IC50) in data set [4] was 0.01 µM; in [5], 0.03 µM. In the case of `Cc1ccccc1-n1nnnc1C(c1cncnc1)N(Cc1cccc(C(F)(F)F)c1)C1CC1` (centres undefined), in data set [6], the CC50 turned out to be 37 µM. Moreover, the EC50 in data set [7] worked out at 0.4 µM. For `CCN1CCN(c2nc(C)cc(N(CCNc3ccnc4cc(Cl)ccc34)Cc3ccccn3)n2)CC1`, the IC50 in data set [4] came out at 0.09 µM; in data set [5], 0.02 µM. `OC(c1cc(C(F)(F)F)nc2c(C(F)(F)F)cccc12)C1CCCCN1` (centres undefined) [MEFLOQUINE] displayed an IC50 in [4] of 0.01 µM. For the same molecule, the IC50 at 72 h in [8] stood at 15 µM. In the case of `COc1ccc(NC(=O)C(c2ccc(C(F)(F)F)cc2)N2CCN(c3ncnc4sc5c(c34)CCCC5)CC2)cc1` (centres undefined), the IC50 in [9] is 0.05 µM. As for `CC(C)=CCC1=C(OCc2cn(C3CC(CO)OC3n3cc(C)c(=O)[nH]c3=O)nn2)C(=O)c2ccccc2C1=O` (centres undefined), the CC50 in data set [10] worked out at 60.7 µM. As to `CC(C)CC(CN1CCN(c2ncccn2)CC1)Nc1ccnc2cc(Cl)ccc12` (centres undefined), the values for the half-maximal inhibitory concentration (IC50) in data set [3] and in data set [11] were 0.46 µM and 0.352 µM, respectively. In the case of `FC(F)(F)c1cc(Nc2ncccn2)c2cccc(C(F)(F)F)c2n1`, the IC50 at 72 h in data set [8] is > 559 µM.

With `CC(C)=CCC1=C(OCc2cn(-c3cccnc3)nn2)C(=O)c2ccccc2C1=O`, the CC50 at 48 h in data set [12] was determined as 1030 µM.

Consider `Cc1ccccc1-n1nnnc1C(c1cccnc1)N(Cc1cccc(C(F)(F)F)c1)C1CC1` (centres undefined), for which the CC50 in data set [13] came out at 15 µM.

`COc1ccc2nc(/C=C/c3ccncc3)cc(Cl)c2c1` gave a half-maximal inhibitory concentration (IC50) in data set [14] of 2.54 µM. As for `COc1ccc(NC(=O)C(c2ccc(Cl)c(Cl)c2)N2CCN(c3ncnc4sc5c(c34)CCCC5)CC2)cc1` (centres undefined), the IC50 in [9] was 0.06 µM.

As to `Cc1cc(N(CCNc2ccnc3cc(Cl)ccc23)Cc2ccccn2)nc(N2CCN(C)CC2)n1`, the IC50 in data set [5] was 0.02 µM.

As for `CC[C@H]1CN2CCc3cc(OC)c(OC)cc3[C@@H]2C[C@@H]1C[C@H]1NCCc2cc(OC)c(OC)cc21` [EMETINE], the half-maximal inhibitory concentration (IC50) in data set [15] stood at 0.65 µM; in data set [16], 0.25 µM.

Take `COc1ccc(-c2cc(-c3ccc(OC)c(OC)c3)nc(N3CCN(c4ccnc5cc(Cl)ccc45)CC3)n2)cc1OC`: the 50% inhibitory concentration (IC50) in [17] was found to be 6.17 µM.

With `C[C@H]1[C@H](OC(=O)CCC(=O)O)O[C@@H]2O[C@@]3(C)CC[C@H]4[C@H](C)CC[C@@H]1[C@@]24OO3` [ARTESUNATE], in data set [3], half-maximal inhibition (IC50) required 1 µM. Take `CCCN(C(c1cccnc1)c1nnnn1-c1ccccc1C)C1(c2cccc(C(F)(F)F)c2)CC1` (centres undefined): in data set [13], the CC50 came out at 10 µM. With `Cc1cc(C)cc(N(Cc2cc(C)ccc2C)S(=O)(=O)c2cccn3c(C)nnc23)c1`, in data set [18], the IC50 at 72 h is 48.5 µM. In addition, in [11], the 50% inhibitory concentration (IC50) worked out at 11.5 µM.

Consider `Cc1ncc(C(c2nnnn2C2CC2)N(C2CC2)C2(c3cccc(C(F)(F)F)c3)CC2)cn1` (centres undefined), for which the EC50 in [2] is 21 µM; in data set [7], > 30 µM. In data set [6], the 50% cytotoxic concentration (CC50) is > 30 µM. Consider `CC(C)=CCC1=C(OCc2cn(Cc3ccccn3)nn2)C(=O)c2ccccc2C1=O`, for which the CC50 at 48 h in data set [12] is 658 µM. Take `COc1ccc(NC(=O)C(c2ccc(C)cc2)N2CCN(c3ncnc4sc5c(c34)CCCC5)CC2)cc1` (centres undefined): the IC50 in data set [9] came out at 0.26 µM. In the case of `CC1(C)c2nc(-c3ccc(F)cc3)c(Br)n2CCN1C(=O)Cn1cc(-c2ccnc(-c3ccccn3)c2)nn1`, the IC50 in data set [15] came to 3.9 µM; in data set [16], 6.8 µM.

`Cc1ccc(NS(=O)(=O)c2ccc(Nc3cc(C)nc4nc(C(F)(F)F)nn34)cc2)cc1`: the IC50 in data set [3] worked out at 0.03 µM. In the case of `Cc1ccccc1-n1nnnc1C(c1cncnc1)N(Cc1cc(F)cc(C(F)(F)F)c1)C1CC1` (centres undefined), in [2], the EC50 came to 1.2 µM. In addition, the CC50 in [6] worked out at 36 µM. On to `Cc1ccccc1-n1nnnc1C(c1cccnc1)N(C)Cc1cc(C(F)(F)F)ccc1F` (centres undefined), for which the EC50 in data set [1] was determined as 1 µM. As to `Oc1ccc(-c2cc(-c3ccc(O)c(O)c3)nc(NCCCCNc3ccnc4cc(Cl)ccc34)n2)cc1`, the IC50 in data set [17] amounted to 1.62 µM. Consider `CCN1CCN(c2cc(C)nc(N(CCCNc3ccnc4cc(Cl)ccc34)Cc3cccs3)n2)CC1`, for which the IC50 was 0.01 µM in [4] and 0.032 µM in data set [5]. Turning to `COc1ccc2nc(/C=C/c3ccncc3)cc(NC3CCCCC3)c2c1`, in data set [14], the IC50 came out at 0.27 µM.
